# According to patent publication US9283280B2, “Compositions for drug administration” (Aegis Therapeutics, LLC, priority 2008, dated 2016):
# Legend:
# [1] = tested on: blood D-glucose; test: Insulin eye drops with absorption enhancer in xylazine/ketamine-anesthetized hyperglycemic rats, blood D-glucose; format: in vivo, rat
# [2] = Intranasal triptans with alkylsaccharide in rats, plasma levels by HPLC; format: in vivo;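 note: rats in groups of eight given 20 µL into one nostril, dose expressed as triptan free base, Cmax and Tmax read from plasma concentration–time curves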
# [3] = tested on: blood D-glucose; test: Glucagon eye drops with surfactant in rats, elevation of blood D-glucose; conditions: for Blood Glucose Concentration: glucagon eye drops + 0.5% surfactant added after 120 min
# Description: Glucagon absorption from the eye was measured in rats given eye drops containing various surfactants plus glucagon (30 μg) (Eli Lilly, Indianapolis, Ind.) by monitoring an elevation in blood D-glucose levels. In these experiments, rats were anesthetized with sodium pentobarbital rather than xylazine/ketamin.
# Paired animals that receive eye drops containing the surfactant alone, or glucagon alone, were compared to animals receiving eye drops with the surfactant plus glucagon.
# [4] = 0.5% surfactant, time −10 min, before insulin eye drops
# [5] = 0.5% surfactant, time −20 min, before insulin eye drops
# [6] = insulin eye drops + 0.5% surfactant, time 0 min
# [7] = insulin eye drops + 0.5% surfactant, time 10 min
# [8] = insulin eye drops + 0.5% surfactant, time 20 min
# [9] = insulin eye drops + 0.5% surfactant, time 30 min
# [10] = insulin eye drops + 0.5% surfactant, time 40 min
# [11] = insulin eye drops + 0.5% surfactant, time 50 min
# [12] = insulin eye drops + 0.5% surfactant, time 60 min
# [13] = insulin eye drops + 0.5% surfactant, time 70 min
# [14] = insulin eye drops + 0.5% surfactant, time 80 min
# [15] = insulin eye drops + 0.5% surfactant, time 90 min
# [16] = insulin eye drops + 0.5% surfactant, time 100 min
# [17] = insulin eye drops + 0.5% surfactant, time 110 min
# [18] = insulin eye drops + 0.5% surfactant, time 120 min
# [19] = Naratriptan 0.22 mg/kg intranasal, alkylsaccharide 0.02%
# [20] = Naratriptan 0.22 mg/kg intranasal, alkylsaccharide 0.05%
# [21] = Naratriptan 0.22 mg/kg intranasal, alkylsaccharide 0.1%
# [22] = Naratriptan 0.22 mg/kg intranasal, alkylsaccharide 0.5%
# [23] = Naratriptan 0.22 mg/kg intranasal, alkylsaccharide 2%
# [24] = Rizatriptan […] intranasal, alkylsaccharide 0.02%
# [25] = Rizatriptan […] intranasal, alkylsaccharide 0.05%
# [26] = Rizatriptan […] intranasal, alkylsaccharide 0.1%
# [27] = Rizatriptan […] intranasal, alkylsaccharide 0.5%
# [28] = Rizatriptan […] intranasal, alkylsaccharide 2%
# [29] = Sumatriptan 6.2 mg/kg intranasal, alkylsaccharide 0.02%
# [30] = Sumatriptan 6.2 mg/kg intranasal, alkylsaccharide 0.05%
# [31] = Sumatriptan 6.2 mg/kg intranasal, alkylsaccharide 0.1%
# [32] = Sumatriptan 6.2 mg/kg intranasal, alkylsaccharide 0.5%
# [33] = Sumatriptan 6.2 mg/kg intranasal, alkylsaccharide 2%
# [34] = eye drops 0.2% insulin + 0.5% enhancer
# [35] = insulin eye drops + 0.5% alkylglucoside
compound,measurement,setting,value
dodecylsucrose [dodecyl sucrose],Blood Glucose Concentration,[1]; [4],305 mg/dL
same,Blood Glucose Concentration,[1]; [5],266 mg/dL
same,Blood Glucose Concentration,[1]; [6],351 mg/dL
same,Blood Glucose Concentration,[1]; [7],347 mg/dL
same,Blood Glucose Concentration,[1]; [8],252 mg/dL
same,Blood Glucose Concentration,[1]; [9],161 mg/dL
same,Blood Glucose Concentration,[1]; [10],120 mg/dL
same,Blood Glucose Concentration,[1]; [11],105 mg/dL
same,Blood Glucose Concentration,[1]; [12],114 mg/dL
same,Blood Glucose Concentration,[1]; [13],113 mg/dL
same,Blood Glucose Concentration,[1]; [14],104 mg/dL
same,Blood Glucose Concentration,[1]; [15],86 mg/dL
same,Blood Glucose Concentration,[1]; [16],113 mg/dL
same,Blood Glucose Concentration,[1]; [17],107 mg/dL
same,Blood Glucose Concentration,[1]; [18],112 mg/dL
same,blood glucose level,"[1]; insulin eye drops + […] alkyl saccharide, time 0 min",335 mg/dL
same,blood glucose level,"[1]; insulin eye drops + […] alkyl saccharide, time 120 min",150 mg/dL
same,Tmax,[2]; [19],~60 min
same,Tmax,[2]; [20],~5 to 15 min
same,Tmax,[2]; [21],~5 to 15 min
same,Tmax,[2]; [22],~5 to 15 min
same,Tmax,[2]; [23],~5 to 15 min
same,Tmax,[2]; [24],~60 min
same,Tmax,[2]; [25],~5 to 15 min
same,Tmax,[2]; [26],~5 to 15 min
same,Tmax,[2]; [27],~5 to 15 min
same,Tmax,[2]; [28],~5 to 15 min
same,Tmax,[2]; [29],~60 min
same,Tmax,[2]; [30],~5 to 15 min
same,Tmax,[2]; [31],~5 to 15 min
same,Tmax,[2]; [32],~5 to 15 min
same,Tmax,[2]; [33],~5 to 15 min
decylsucrose,hypoglycemic effect / insulin absorption enhancement,[1]; [34],effective in reducing blood glucose levels
same,blood glucose level,"[1]; insulin eye drops + 0.5% alkyl saccharide, time 0 min",313 mg/dL
same,blood glucose level,"[1]; insulin eye drops + 0.5% alkyl saccharide, time 120 min",164 mg/dL
"CCCCCCCCCOC1O[C@H](CO)[C@@H](O)[C@H](O)[C@H]1O (some centres unmarked) [nonylglucoside, nonylglucopyranoside]",hypoglycemic effect / insulin absorption enhancement,[1]; [34],effectively stimulated insulin absorption
same,"blood glucose level, initial (from)",[1]; [35],297 mg/dL
same,"blood glucose level, reduced (to)",[1]; [35],150 mg/dL
"CCCCCCCCCCCCCO[C@@H]1O[C@H](CO)[C@@H](O[C@H]2O[C@H](CO)[C@@H](O)[C@H](O)[C@H]2O)[C@H](O)[C@H]1O [tridecyl maltoside, tridecyl-β-D-maltoside]",Blood Glucose Concentration,[1]; [4],307 mg/dL
same,Blood Glucose Concentration,[1]; [5],255 mg/dL
same,hypoglycemic effect / insulin absorption enhancement,[1]; [34],effective
same,hypoglycemic effect / insulin absorption enhancement,[1]; eye drops 0.2% insulin + […] enhancer,sustained for the two hour time course
same,Blood Glucose Concentration,[1]; [6],323 mg/dL
same,Blood Glucose Concentration,[1]; [7],309 mg/dL
same,Blood Glucose Concentration,[1]; [8],217 mg/dL
same,Blood Glucose Concentration,[1]; [9],131 mg/dL
same,Blood Glucose Concentration,[1]; [10],100 mg/dL
same,Blood Glucose Concentration,[1]; [11],87 mg/dL
same,Blood Glucose Concentration,[1]; [12],107 mg/dL
same,Blood Glucose Concentration,[1]; [13],115 mg/dL
same,Blood Glucose Concentration,[1]; [14],79 mg/dL
same,Blood Glucose Concentration,[1]; [15],85 mg/dL
same,Blood Glucose Concentration,[1]; [16],76 mg/dL
same,Blood Glucose Concentration,[1]; [17],74 mg/dL
same,Blood Glucose Concentration,[1]; [18],75 mg/dL
same,Ratio Cmax(alkylsacch)/Cmax(No alkylsacch),[2]; [19],≦1.5
same,Tmax,[2]; [19],~60 min
same,Ratio Cmax(alkylsacch)/Cmax(No alkylsacch),[2]; [20],≧1.5
same,Tmax,[2]; [20],~5 to 15 min
same,Ratio Cmax(alkylsacch)/Cmax(No alkylsacch),[2]; [21],≧1.5
same,Tmax,[2]; [21],~5 to 15 min
same,Ratio Cmax(alkylsacch)/Cmax(No alkylsacch),[2]; [22],≧1.5
same,Tmax,[2]; [22],~5 to 15 min
same,Ratio Cmax(alkylsacch)/Cmax(No alkylsacch),[2]; [23],≧1.5
same,Tmax,[2]; [23],~5 to 15 min
same,Tmax,[2]; [24],~60 min
same,Tmax,[2]; [25],~5 to 15 min
same,Tmax,[2]; [26],~5 to 15 min
same,Tmax,[2]; [27],~5 to 15 min
same,Tmax,[2]; [28],~5 to 15 min
same,Ratio Cmax(alkylsacch)/Cmax(No alkylsacch),[2]; [29],≦1.5
same,Tmax,[2]; [29],~60 min
same,Ratio Cmax(alkylsacch)/Cmax(No alkylsacch),[2]; [30],≧1.5
same,Tmax,[2]; [30],~5 to 15 min
same,Ratio Cmax(alkylsacch)/Cmax(No alkylsacch),[2]; [31],≧1.5
same,Tmax,[2]; [31],~5 to 15 min
same,Ratio Cmax(alkylsacch)/Cmax(No alkylsacch),[2]; [32],≧1.5
same,Tmax,[2]; [32],~5 to 15 min
same,Ratio Cmax(alkylsacch)/Cmax(No alkylsacch),[2]; [33],≧1.5
same,Tmax,[2]; [33],~5 to 15 min
same,glucagon absorption / blood D-glucose values,[3]; eye drops surfactant plus glucagon in rats previously treated with surfactant plus insulin eye drops,increase significantly
same,Blood Glucose Concentration,[3]; time 130 min,82 mg/dL
same,Blood Glucose Concentration,[3]; time 140 min,121 mg/dL
same,Blood Glucose Concentration,[3]; time 150 min,148 mg/dL
same,Blood Glucose Concentration,[3]; time 160 min,173 mg/dL
same,Blood Glucose Concentration,[3]; time 170 min,162 mg/dL
same,Blood Glucose Concentration,[3]; time 180 min,162 mg/dL
same,Blood Glucose Concentration,[3]; time 190 min,156 mg/dL
"CCCCCCCOC1O[C@H](CO)[C@@H](O)[C@H](O)[C@H]1O (some centres unmarked) [heptylglucoside, heptylglucopyranoside]",hypoglycemic effect / insulin absorption enhancement,[1]; [34],ineffective
"CCCCCCCCO[C@@H]1O[C@H](CO)[C@@H](O[C@H]2O[C@H](CO)[C@@H](O)[C@H](O)[C@H]2O)[C@H](O)[C@H]1O [octyl maltoside, Octyl-β-D-maltoside]",absorption enhancing activity by alkyl chain length,"[1]; ocular insulin, concentration not given",no
same,Ratio Cmax(alkylsacch)/Cmax(No alkylsacch),[2]; [19],≦1.5
same,Tmax,[2]; [19],~60 to 120 min
same,Ratio Cmax(alkylsacch)/Cmax(No alkylsacch),[2]; [20],≦1.5
same,Tmax,[2]; [20],~60 to 120 min
same,Ratio Cmax(alkylsacch)/Cmax(No alkylsacch),[2]; [21],≦1.5
same,Tmax,[2]; [21],~60 to 120 min
same,Ratio Cmax(alkylsacch)/Cmax(No alkylsacch),[2]; [22],≦1.5
same,Tmax,[2]; [22],~60 to 120 min
same,Ratio Cmax(alkylsacch)/Cmax(No alkylsacch),[2]; [23],≦1.5
same,Tmax,[2]; [23],~60 to 120 min
same,Tmax,[2]; [24],~60 to 120 min
same,Tmax,[2]; [25],~60 to 120 min
same,Tmax,[2]; [26],~60 to 120 min
same,Tmax,[2]; [27],~60 to 120 min
same,Tmax,[2]; [28],~60 to 120 min
same,Ratio Cmax(alkylsacch)/Cmax(No alkylsacch),[2]; [29],≦1.5
same,Tmax,[2]; [29],~60 to 120 min
same,Ratio Cmax(alkylsacch)/Cmax(No alkylsacch),[2]; [30],≦1.5
same,Tmax,[2]; [30],~60 to 120 min
same,Ratio Cmax(alkylsacch)/Cmax(No alkylsacch),[2]; [31],≦1.5
same,Tmax,[2]; [31],~60 to 120 min
same,Ratio Cmax(alkylsacch)/Cmax(No alkylsacch),[2]; [32],≦1.5
same,Tmax,[2]; [32],~60 to 120 min
same,Ratio Cmax(alkylsacch)/Cmax(No alkylsacch),[2]; [33],≦1.5
same,Tmax,[2]; [33],~60 to 120 min
"CCCCCCOC1O[C@H](CO)[C@@H](O)[C@H](O)[C@H]1O (some centres unmarked) [hexylglucoside, Hexylglucopyranoside]",hypoglycemic effect / insulin absorption enhancement,[1]; [34],ineffective
